Test results taken from patent US6685962B2, “Gastroretentive controlled release pharmaceutical dosage forms” (priority 1999, dated 2004).

Assay: Riboflavin plasma pharmacokinetics and bioavailability after IV bolus, oral solution or GRDF
Assay type: in vivo, Beagle dogs
Settings: for log-terminal slope of plasma riboflavin concentration: 100 mg riboflavin-5-phosphate, dogs n=6
Description: Each dog received the drug by each of these modes, with at least one-week washout period between every phase of the study.
Following each administration blood samples (4 ml) were collected into 5 ml heparinized test tubes wrapped in aluminum foil (to protect from light), for modes (1) and (2) at times 0, 0.25, 0.5, 1, 1.5, 2, 2.5, 3, 3.5, 4, 6, 8, 11, 24 hours, and for mode (3) at times 0, 0.5, 1, 1.5, 2, […], 3, 4, 6, 9, 12, 15, 18, 21, 24, 27, 30, 33, 36 and 48 hours. Plasma was separated following centrifugation (4000 rpm for 10 minutes), and stored at −20° C. pending analysis.
Riboflavin plasma concentrations were determined by an HPLC method as follows: 100 μl trichloroacetic acid (20%) was mixed with 300 μl of a plasma sample. Following centrifugation of the mixture (13,000 rpm for 10 minutes) the supernatant was separated and incubated for 10 min at 85° C. After additional centrifugation (13,000 rpm for 10 minutes) 60 μl of the solution were injected to C18 HPLC column, with mobile phase that consisted of 15% acetonitrile in solution A (10 mmol potassium dihydrogen phosphate/L and 5 mmol hexanesulfonic acid/L, brought to a pH of 3 with orthophosphoric acid) at a flow rate of 1 ml/min. A spectrofluorometric detector set at 445 nm for excitation wavelength and 530 nm for emission wavelength detected the drug. Drug concentrations were determined with appropriate standard curves.

## Cc1cc2nc3c(=O)[nH]c(=O)nc-3n(C[C@H](O)[C@H](O)[C@H](O)CO)c2cc1C [riboflavin]
Beagle, dog, plasma, 100 mg, oral administration (oral solution), dogs, read-out: absolute bioavailability of riboflavin
  bioavailability: 5.8 ± 2.2%
Concluded from iv and PO administration, dogs
  rate of riboflavin elimination: 0.4 h⁻¹
Intravenous bolus
  log-terminal slope of plasma riboflavin concentration: 0.44±0.13 hr^−1
Oral solution
  log-terminal slope of plasma riboflavin concentration: 0.35±0.14 hr^−1
